Assay results taken from ChEMBL document CHEMBL4665642, “Anticancer profile of newly synthesized BRAF inhibitors possess 5-(pyrimidin-4-yl)imidazo[2,1-b]thiazole scaffold” (Bioorg Med Chem, 2019).

Key:
Type in all cases: functional
Details in all cases: read-out: Activity
IGROV-1 = assay: Cytotoxicity against human IGROV-1 cells assessed as cell viability at 10 uM incubated for 48 hrs by sulforhodamine B assay relative to control
HCT-116 = assay: Cytotoxicity against human HCT-116 cells assessed as cell viability at 10 uM incubated for 48 hrs by sulforhodamine B assay relative to control
OVCAR-8 = assay: Cytotoxicity against human OVCAR-8 cells assessed as cell viability at 10 uM incubated for 48 hrs by sulforhodamine B assay relative to control
NCI-H226 = assay: Cytotoxicity against human NCI-H226 cells assessed as cell viability at 10 uM incubated for 48 hrs by sulforhodamine B assay relative to control
SF-295 = assay: Cytotoxicity against human SF-295 cells assessed as cell viability at 10 uM incubated for 48 hrs by sulforhodamine B assay relative to control
CAKI-1 = assay: Cytotoxicity against human CAKI-1 cells assessed as cell viability at 10 uM incubated for 48 hrs by sulforhodamine B assay relative to control
A549 = assay: Cytotoxicity against human A549 cells assessed as cell viability at 10 uM incubated for 48 hrs by sulforhodamine B assay relative to control
RXF 393 = assay: Cytotoxicity against human RXF 393 cells assessed as cell viability at 10 uM incubated for 48 hrs by sulforhodamine B assay relative to control
MDA-MB-231 = assay: Cytotoxicity against human MDA-MB-231 cells assessed as cell viability at 10 uM incubated for 48 hrs by sulforhodamine B assay relative to control
NCI/ADR-RES = assay: Cytotoxicity against human NCI/ADR-RES cells assessed as cell viability at 10 uM incubated for 48 hrs by sulforhodamine B assay relative to control
MCF7 = assay: Cytotoxicity against human MCF7 cells assessed as cell viability at 10 uM incubated for 48 hrs by sulforhodamine B assay relative to control
PC-3 = assay: Cytotoxicity against human PC-3 cells assessed as cell viability at 10 uM incubated for 48 hrs by sulforhodamine B assay relative to control
HOP-62 = assay: Cytotoxicity against human HOP-62 cells assessed as cell viability at 10 uM incubated for 48 hrs by sulforhodamine B assay relative to control
HCC 2998 = assay: Cytotoxicity against human HCC 2998 cells assessed as cell viability at 10 uM incubated for 48 hrs by sulforhodamine B assay relative to control
LOX IMVI = assay: Cytotoxicity against human LOX IMVI cells assessed as cell viability at 10 uM incubated for 48 hrs by sulforhodamine B assay relative to control
SF-268 = assay: Cytotoxicity against human SF-268 cells assessed as cell viability at 10 uM incubated for 48 hrs by sulforhodamine B assay relative to control
SK-MEL-2 = assay: Cytotoxicity against human SK-MEL-2 cells assessed as cell viability at 10 uM incubated for 48 hrs by sulforhodamine B assay relative to control
M14 = assay: Cytotoxicity against human M14 cells assessed as cell viability at 10 uM incubated for 48 hrs by sulforhodamine B assay relative to control
SNB-75 = assay: Cytotoxicity against human SNB-75 cells assessed as cell viability at 10 uM incubated for 48 hrs by sulforhodamine B assay relative to control
SW-620 = assay: Cytotoxicity against human SW-620 cells assessed as cell viability at 10 uM incubated for 48 hrs by sulforhodamine B assay relative to control
Malme-3M = assay: Cytotoxicity against human Malme-3M cells assessed as cell viability at 10 uM incubated for 48 hrs by sulforhodamine B assay relative to control
U-251 = assay: Cytotoxicity against human U-251 cells assessed as cell viability at 10 uM incubated for 48 hrs by sulforhodamine B assay relative to control
UACC-257 = assay: Cytotoxicity against human UACC-257 cells assessed as cell viability at 10 uM incubated for 48 hrs by sulforhodamine B assay relative to control
SK-MEL-5 = assay: Cytotoxicity against human SK-MEL-5 cells assessed as cell viability at 10 uM incubated for 48 hrs by sulforhodamine B assay relative to control
RPMI-8226 = assay: Cytotoxicity against human RPMI-8226 cells assessed as cell viability at 10 uM incubated for 48 hrs by sulforhodamine B assay relative to control
HOP-92 = assay: Cytotoxicity against human HOP-92 cells assessed as cell viability at 10 uM incubated for 48 hrs by sulforhodamine B assay relative to control
SF-539 = assay: Cytotoxicity against human SF-539 cells assessed as cell viability at 10 uM incubated for 48 hrs by sulforhodamine B assay relative to control
SNB-19 = assay: Cytotoxicity against human SNB-19 cells assessed as cell viability at 10 uM incubated for 48 hrs by sulforhodamine B assay relative to control
DU-145 = assay: Cytotoxicity against human DU-145 cells assessed as cell viability at 10 uM incubated for 48 hrs by sulforhodamine B assay relative to control
OVCAR-5 = assay: Cytotoxicity against human OVCAR-5 cells assessed as cell viability at 10 uM incubated for 48 hrs by sulforhodamine B assay relative to control
Hs-578T = assay: Cytotoxicity against human HS-578T cells assessed as cell viability at 10 uM incubated for 48 hrs by sulforhodamine B assay relative to control
NCI-H322M = assay: Cytotoxicity against human NCI-H322M cells assessed as cell viability at 10 uM incubated for 48 hrs by sulforhodamine B assay relative to control
NCI-H522 = assay: Cytotoxicity against human NCI-H522 cells assessed as cell viability at 10 uM incubated for 48 hrs by sulforhodamine B assay relative to control
BT-549 = assay: Cytotoxicity against human BT-549 cells assessed as cell viability at 10 uM incubated for 48 hrs by sulforhodamine B assay relative to control
EKVX = assay: Cytotoxicity against human EKVX cells assessed as cell viability at 10 uM incubated for 48 hrs by sulforhodamine B assay relative to control
TK-10 = assay: Cytotoxicity against human TK-10 cells assessed as cell viability at 10 uM incubated for 48 hrs by sulforhodamine B assay relative to control
HCT-15 = assay: Cytotoxicity against human HCT-15 cells assessed as cell viability at 10 uM incubated for 48 hrs by sulforhodamine B assay relative to control
UO-31 = assay: Cytotoxicity against human UO-31 cells assessed as cell viability at 10 uM incubated for 48 hrs by sulforhodamine B assay relative to control
MDA-MB-435 = assay: Cytotoxicity against human MDA-MB-435 cells assessed as cell viability at 10 uM incubated for 48 hrs by sulforhodamine B assay relative to control
NCI-H23 = assay: Cytotoxicity against human NCI-H23 cells assessed as cell viability at 10 uM incubated for 48 hrs by sulforhodamine B assay relative to control
SR = assay: Cytotoxicity against human SR cells assessed as cell viability at 10 uM incubated for 48 hrs by sulforhodamine B assay relative to control

`O=C(NCCNc1nccc(-c2c(-c3cccc(F)c3)nc3sccn23)n1)C1CCCCC1` gave a viability at 10 µM (IGROV-1) of 45.1%, a viability at 10 µM (HCT-116) of 51.9% and a viability at 10 µM (OVCAR-8) of 56.9%. For the same compound, the viability at 10 µM (NCI-H226) was 60.9%, the viability at 10 µM (SF-295) was 93.6% and the viability at 10 µM (CAKI-1) was 70.4%. For the same compound, the viability at 10 µM (A549) was 78.8%, the viability at 10 µM (RXF 393) was 78.2% and the viability at 10 µM (MDA-MB-231) was 104%. The viability at 10 µM (NCI/ADR-RES) was 66.9%, the viability at 10 µM (MCF7) was 82% and the viability at 10 µM (PC-3) was 75.2%. For the same compound, the viability at 10 µM (HOP-62) was 109%, the viability at 10 µM (HCC 2998) was 104% and the viability at 10 µM (LOX IMVI) was 65.9%. For the same compound, the viability at 10 µM (SF-268) was 77.3%, the viability at 10 µM (SK-MEL-2) was 60.1% and the viability at 10 µM (M14) was 73.6%. The viability at 10 µM (SNB-75) was 88.6%, the viability at 10 µM (SW-620) was 114% and the viability at 10 µM (Malme-3M) was 130%. It also gave a viability at 10 µM (U-251) of 90.5%, a viability at 10 µM (UACC-257) of 113% and a viability at 10 µM (SK-MEL-5) of 59.6%. It also gave a viability at 10 µM (RPMI-8226) of 81.6%, a viability at 10 µM (HOP-92) of 135% and a viability at 10 µM (SF-539) of 84.9%. For the same compound, the viability at 10 µM (SNB-19) was 96%, the viability at 10 µM (DU-145) was 81.6% and the viability at 10 µM (OVCAR-5) was 141%. It also gave a viability at 10 µM (Hs-578T) of 91.8%, a viability at 10 µM (NCI-H322M) of 104% and a viability at 10 µM (NCI-H522) of 79.3%. The viability at 10 µM (BT-549) was 93.9%, the viability at 10 µM (EKVX) was 80.4% and the viability at 10 µM (TK-10) was 88.6%. For the same compound, the viability at 10 µM (HCT-15) was 61%, the viability at 10 µM (UO-31) was 40.3% and the viability at 10 µM (MDA-MB-435) was 65.5%. It also gave a viability at 10 µM (NCI-H23) of 97% and a viability at 10 µM (SR) of 91%.
Work on `O=S(=O)(NCCNc1nccc(-c2c(-c3cccc(F)c3)nc3sccn23)n1)c1cccc2ccccc12` yielded a viability at 10 µM (IGROV-1) of 61%, a viability at 10 µM (HCT-116) of 84.6% and a viability at 10 µM (OVCAR-8) of 89.4%. The viability at 10 µM (NCI-H226) was 94.1%, the viability at 10 µM (SF-295) was 106% and the viability at 10 µM (CAKI-1) was 77.5%. The viability at 10 µM (A549) was 88%, the viability at 10 µM (RXF 393) was 102% and the viability at 10 µM (MDA-MB-231) was 95%. For the same compound, the viability at 10 µM (NCI/ADR-RES) was 97.3%, the viability at 10 µM (MCF7) was 74.6% and the viability at 10 µM (PC-3) was 80.2%. For the same compound, the viability at 10 µM (HOP-62) was 110%, the viability at 10 µM (HCC 2998) was 131% and the viability at 10 µM (LOX IMVI) was 95.7%. It also gave a viability at 10 µM (SF-268) of 85.6%, a viability at 10 µM (SK-MEL-2) of 104% and a viability at 10 µM (M14) of 107%. The viability at 10 µM (SNB-75) was 92.3%, the viability at 10 µM (SW-620) was 115% and the viability at 10 µM (Malme-3M) was 118%. For the same compound, the viability at 10 µM (U-251) was 97.4%, the viability at 10 µM (UACC-257) was 107% and the viability at 10 µM (SK-MEL-5) was 88.3%. The viability at 10 µM (RPMI-8226) was 83.9%, the viability at 10 µM (HOP-92) was 91.2% and the viability at 10 µM (SF-539) was 109%. For the same compound, the viability at 10 µM (SNB-19) was 96.2%, the viability at 10 µM (DU-145) was 97.8% and the viability at 10 µM (OVCAR-5) was 127%. For the same compound, the viability at 10 µM (Hs-578T) was 103%, the viability at 10 µM (NCI-H322M) was 104% and the viability at 10 µM (NCI-H522) was 95.5%. It also gave a viability at 10 µM (BT-549) of 104%, a viability at 10 µM (EKVX) of 93.9% and a viability at 10 µM (TK-10) of 112%. It also gave a viability at 10 µM (HCT-15) of 83.6%, a viability at 10 µM (UO-31) of 59.2% and a viability at 10 µM (MDA-MB-435) of 87.7%. For the same compound, the viability at 10 µM (NCI-H23) was 99.9% and the viability at 10 µM (SR) was 88.1%.
